In US11944632B2, “Use of sodium dichloroisocyanurate (NaDCC) and a pharmaceutical formulation prepared therefrom” (SAVA HEALTHCARE LTD, priority 2020, dated 2024):

Columns and labels:
Escherichia coli = conditions: cited from earlier work
Bacterial membrane = conditions: cited from earlier work
[1] = test system: microbial load of Salacia extract; test: % microbial load reduction in Salacia extract; conditions: for Total cfu/g: untreated 21000
Excerpt: Example 4: % Microbial Load Reduction in Ayurvedic Herbs and Extracts by Using Sodium Dichloroisocyanurate (NaDCC)

[2] = test system: Bacillus licheniformis, and Bacillus paralicheniformis; test: Susceptibility of bacteria isolated from Salacia reticulata to NaDCC; type: cell-based
Description: (§1) The bacteria (Bacillus licheniformis, and Bacillus paralicheniformis) and fungus (Aspergillus sps) isolated from the Salacia reticulata and bacteria Bacillus licheniformis isolated from Garcinia cambogia extract was tested for susceptibility for the sensitivity towards NaDCC.

Aspergillus sps = test: Susceptibility of fungus isolated from Salacia reticulata to NaDCC; type: cell-based
Description: as §1

Bacillus licheniformis = test: Susceptibility of bacteria isolated from Garcinia cambogia extract to NaDCC; type: cell-based
Description: as §1

[3] = temperate and tropical climates; cited from earlier work
coliforms and E. coli = conditions: 25 mg/ml, raw river water; cited from earlier work
[4] = test system: 29 Gram-positive and 29 Gram-negative bacteria, as well as 66 fungi; conditions: independent of pH and temperature; cited from earlier work
[5] = Stability of NaDCC solution (HDPE bottle); conditions: tables 6 to 9
mammalian cell vero6 = test: Anti-COVID activity: cell survival (cytotoxicity); conditions: vero6 cells infected with COVID-19 virus
COVID-19 virus = test: Anti-COVID activity: inhibition of virus replication; conditions: Severe acute respiratory syndrome coronavirus 2, read-out: Inhibition of the virus replication
[6] = Cyanuric acid and free available chlorine in lung homogenate after NaDCC DPI; conditions: administered as a DPI
Description: Further, the so obtained NaDCC DPI was clinically assessed by determining the amount of cyanuric acid in the tissues.

[7] = NaDCC 0.05% to 5% mixed with Salacia extract (inference)

SMILES | HOCl concentration that completely inhibited cell division (Escherichia coli; Escherichia coli) [µM] | IC50 (Escherichia coli; read-out: HOCl required for 50% inhibition of bacterial growth, 5×10^8 Escherichia coli/ml) [µM] | Concentration below which bacterial membrane disruption and release of cell contents is not observed (Bacterial membrane) | Total cfu/g ([1]; 0.02 g NaDCC in 10 g Salacia extract (0.2%), batch RDP/SR/073) [cfu/g] | Total cfu/g ([1]; 0.04 g NaDCC in 10 g Salacia extract (0.4%), batch RDP/SR/074) [cfu/g] | % microbial reduction ([1]; 0.2% of input extract, batch RDP/SR/073) [%] | % microbial reduction ([1]; 0.4% of input extract, batch RDP/SR/074) [%] | Reduction in bacterial counts [1, 7] [logs] | Reduction of bacterial load [1, 7] [%] | Antibacterial activity (FIG. 1) [2] | Anti-fungal activity (FIG. 1) (Aspergillus sps) | Antibacterial activity (FIG. 2) (Bacillus licheniformis) | Shelf life [3] [years] | Reduction of viable bacteria (coliforms and E. coli) | Antimicrobial activity [4] | Stability in acetic acid and cyanuric acid as a solution (inference) [5] | Survival of cell (FIG. 3B) (mammalian cell vero6) | inhibition at 600 ppm (COVID-19 virus) [%] | Metabolism / tissue accumulation [6]
OCl [HOCl, Hypochlorous acid] | 50 | 20 | below 5 mM |  |  |  |  |  |  |  |  |  |  |  |  |  |  |  | 
O=c1[n-]c(=O)n(Cl)c(=O)n1Cl.[Na+] [NaDCC, Sodium 3,5-dichloro-2,4,6-trioxo-1,3,5-triazinan-1-ide] |  |  |  | <10 | <10 | >99 | >99 | 4 | 99.99 | effective antibacterial activity | anti-fungal activity | effective antibacterial activity | 5 | 1.8-2.8 logs | effective | stable | increase the survival of cell | > 100 | metabolized fast with a short half-life and not accumulated in tissues
